Legend:
[1] = system: Mouse CMV (MCMV) Smith strain; experiment: Plaque assay, mouse CMV in MEFs; type: cell-based, mouse cytomegalovirus; conditions: plaque reduction; for EC50: MEFs, NA = Not active
Excerpt: (§1) Viruses and antiviral assays: A recombinant pp28-luciferase Towne HCMV strain expressing luciferase under the control of the UL99 (pp28) late promoter was reported to provide a highly-sensitive and reproducible reporter for drug screening^20. A GCV-resistant HCMV pp28-luciferase that contains a C607Y mutation in UL97 was reported^37. The HCMV TB40 strain was obtained from ATCC (VR-1578). Clinical isolates of Human Herpesvirus 1 and 2 (HSV1, HSV2) were collected from the Johns Hopkins Microbiology laboratory without identifiers that could link them to a specific patient. Mouse CMV (MCMV) Smith strain (ATCC VR-1399) was used for infection of MEFs.
(§2) Plaque reduction assay: HFFs were seeded into 12-well plates (2×10^5 cells/well) and infected with HCMV TB40 at approximately 100 plaques/well. After 90 min, media were aspirated, and DMEM containing 0.5% carboxymethyl-cellulose (CMC), 4% fetal bovine serum (FBS), and drugs were added into duplicate wells. Following incubation at 37° C. for 10-12 days the overlay was removed, and plaques were counted after crystal violet staining. For HSV1 and HSV2 replication in Vero cells, the adsorption time was 60 min and plaques were counted after 36 h. Plaque assays in MEFs were completed after 3 days.
(§3) Inhibition of other herpesviruses: Inhibition of herpes simplex 1 and 2 (HSV1, HSV2), Epstein Barr virus (EBV) and mouse CMV (MCMV) was tested with the five compounds. Plaque reductions assays were used for HSV1, HSV2 and MCMV. Inhibition of lytic EBV replication was measured by real-time PCR in AKATA cells following IgG induction. Only MLS8554 was active against HSV1, HSV2 and MCMV (Table 2).

[2] = target: pp28-luciferase Towne HCMV; experiment: Drug combination with GCV, pp28-luciferase Towne, Bliss model; type: cell-based, human cytomegalovirus; conditions: combination experiment with GCV, pp28-luciferase; read-out: EC50 (μM) of Compound 2
Experimental: (§4) Drug combination and analysis: These experiments were performed as previously reported^40. The combination of GCV and each compound was tested using the pp28-luciferase. Briefly, 2×10^6 HFFs/plate were seeded in 96-well plates and infected with the pp28-luciferase Towne HCMV strain (MOI=1). First, a dose response curve was generated for each drug individually to determine its EC50. Then, drugs were combined at twice their EC50, diluted in DMEM with 4% FBS, followed by serial dilution and added together after infection. Luciferase activity of the combination and each drug individually was quantified at 72 hpi. The combination of letermovir and each of the new compounds was tested by the plaque assay using TB40. The same principle applied in this assay for the drug combination effect, and plaques were counted at 8 dpi. The Bliss model was used to calculate the effect of each drug combination on pp28-luciferase activity and plaque reduction. In this model, drug combination represents the product of two probabilistically independent events as described in the following equation^41.
[formula] Where D is the drug concentration, m is the slope, and EC50 is the effective concentration resulting in 50% virus inhibition. The combined effect of two inhibitors (Fu, fractional unaffected) is computed as the product of individual effects of the two inhibitors, Fu1 and Fu2. If the ratio of observed fold inhibition divided by the expected fold inhibition is greater than 1, the compounds are synergistic. If the ratio is less than 1, the combination is considered antagonistic, and if it equals to 1 the combination is additive.
(§5) Pattern of drug combination with GCV and letermovir: The effect of each compound alone or in combination with GCV or letermovir was tested in HCMV-infected HFFs. […] For letermovir and its combination with each of the five compounds the EC50 was determined based on plaque assay. […] All other combinations and Bliss coefficients were measured by pp28- luciferase.

HCMV TB40 = experiment: Plaque reduction assay, HCMV TB40 in HFFs; type: cell-based, human cytomegalovirus; conditions: 10 days
Experimental: as §2
Viral protein expression was measured by Western blot.

Epstein Barr Virus (EBV) = experiment: Inhibition of lytic EBV replication in Akata cells, real-time PCR of BALF5; type: cell-based; conditions: real-time PCR at 48 hours, NA = Not active
Experimental: Inhibition of lytic Epstein Barr Virus (EBV) replication: Akata cells (0.5×10^6/well of 24-well plate) latently infected with EBV were induced with 100 μg/ml of goat antihuman IgG (Sigma). Compounds and GCV control were added to triplicate wells immediately after the addition of human IgG. Cells were collected 48 hours after lytic induction for DNA quantification. Cellular DNA was purified using Wizard SV Genomic Kit (Promega, Madison, WI). The effect of the compounds on lytic induction of EBV was analyzed by real-time PCR of the EBV DNA polymerase gene, BALF5^38.
as §3

non-infected HFFs = experiment: in vitro
Experimental: (§6) Cytotoxicity assay: MTT assay was performed as described by manufacturer's instructions (Sigma-Aldrich). Non-infected cells were treated with compounds for 72 h or 10 days (same time points of the antiviral assay), and 20 μL/well of MTT [3-(4, 5-Dimethyl-2-thiazolyl)-2, 5-diphenyl-2H-tetrazolium bromide], 5 mg/mL in phosphate buffered saline (PBS)] was added to each well. After shaking at 150 rpm for 5 min the plates were incubated at 37° C. for 2-3 h. Conversion of yellow solution to dark blue formazan by mitochondrial dehydrogenases of living cells was quantified by measuring absorbance at 560 nm.
(§7) HCMV inhibition was measured by luciferase activity of pp28-recombinant Towne and pp28 GCV-resistant Towne strains of HCMV (72 hpi) and by plaque reduction using HCMV Towne or TB40 (10 days). Viral protein expression was measured by Western blot.

HSV1 clinical isolate = experiment: Plaque reduction assay, HSV1 in Vero cells; type: cell-based, Human Herpesvirus 1; conditions: plaque reduction
Excerpt: as §1, §2, §3

HSV2 clinical isolate = experiment: Plaque reduction assay, HSV2 in Vero cells; type: cell-based, Human Herpesvirus 2; conditions: plaque reduction
Excerpt: as §1, §2, §3

MEFs = experiment: Toxicity to MEFs; type: cell-based, mouse
GCV-resistant HCMV Towne = experiment: Plaque reduction assay, GCV-resistant HCMV Towne in HFFs; type: cell-based, human cytomegalovirus; conditions: Human betaherpesvirus 5, read-out: EC50—GCVR Towne (μM)
in vitro = conditions: human
Experimental: as §6, §7

HCMV = experiment: Drug combination of GCV and 2955 by plaque assay, Bliss model; type: cell-based, human cytomegalovirus; conditions: Human betaherpesvirus 5; combination experiment with GCV, plaque assay; read-out: EC50 (μM) of Compound 2
Experimental: as §4, with “In this model, drug combination represents the product of two probabilistically independent events as described in the following equation^41.” left out
as §5

| SMILES | activity against MCMV, in words [1] | EC50 [2] | EC50 (HCMV TB40) | EC50 (Epstein Barr Virus (EBV); IgG induction) | CC50 (non-infected HFFs) | activity against HSV1, in words (HSV1 clinical isolate) | EC50 [1] | activity against HSV2, in words (HSV2 clinical isolate) | EC50 (HSV2 clinical isolate; Vero cells, NA = Not active, read-out: EC50—HSV2-C1) | EC50 (HSV1 clinical isolate; Vero cells, NA = Not active, read-out: EC50—HSV1-C1) | EC50 ([1]; Murid betaherpesvirus 1) | concentration at which toxicity to MEFs was observed (MEFs) | EC50 (HCMV TB40; Human betaherpesvirus 5, 240 h) | EC50 (GCV-resistant HCMV Towne) | CC50 (in vitro) | EC50 (HCMV) | EC50 (Epstein Barr Virus (EBV); human gammaherpesvirus 4, IgG induction) |
| --- | --- | --- | --- | --- | --- | --- | --- | --- | --- | --- | --- | --- | --- | --- | --- | --- | --- |
| Nc1c(S(=O)(=O)c2cccs2)c2nc3ccccc3nc2n1Cc1ccccc1 [MLS8091] | no activity | 0.57 ± 0.07 µM | 0.33 µM | > 10 µM | > 250 µM | no activity | – | – | – | – | – | – | – | – | – | – | – |
| CCc1ccc(NC(=O)[C@H](Cc2c[nH]c3ccccc23)NC(=O)[C@@H]2Cc3ccccc3CN2)cc1 [MLS8554] | active | 0.55 ± 0.02 µM | 0.34 µM | – | 86 µM | active | 11.7 ± 2 µM | active | 1.3 ± 0.1 µM | 1.78 ± 0.2 µM | – | – | – | – | – | – | – |
| CC(C)NC(=O)C1CCN(C(=O)c2cc3sccc3n2Cc2ccc(Cl)cc2)CC1 [NCGC2955, 1-(4-(4-chlorobenzyl)-4H-thieno[3,2-b]pyrrole-5-carbonyl)-N-isopropylpiperidine-4-carboxamide] | – | – | – | – | – | – | – | – | – | – | 1 µM | ≥ 10 µM | 1.18 ± 0.2 µM | 1.4 ± 0.2 µM | > 200 µM | 1.51 ± 0.03 µM | – |
| CCN1CCN(CCCNC(=O)c2ccc3c(c2)sc2nc(-c4ccc(OC)cc4)cn23)CC1 [NFU1827, N-[3-(4-ethylpiperazin-1-yl)propyl]-4-(4-methoxyphenyl)-7-thia-2,5-diazatricyclo [6.4.0.02,6] dodeca-1(8),3,5,9,11-pentaene-10-carboxamide] | no activity | – | – | – | – | no activity | – | – | – | – | – | – | 1.21 ± 0.1 µM | – | 70.9 µM | – | 1.92 ± 0.1 µM |

Source: patent US12691114B2, “Compositions for inhibition of herpesviruses” (The Medical College of Wisconsin, Inc., priority 2020, dated 2026)
